Assay results published in patent US20190328721A1, “METHOD OF ACTIVATING DENDRITIC CELLS” (KOREA INSTITUTE OF SCIENCE AND TECHNOLOGY, priority 2018, published 2019).

Experiments:
dendritic cells = test: Flow cytometry of dendritic cells from B16F10-Ova-bearing mice (maturation, subsets, cross presentation); format: in vivo
Method: To confirm the effect of the ROCK inhibitor Y27632 on the maturation process of dendritic cells, the inventors administered Y27362 to B16F10-Ova-bearing cancer model animals according to the same administration schedule as in Example 2-1, and the expression of CD40 and CD86, which are dendritic cell maturation markers, was analyzed by flow cytometry.
Recently, it has been shown that CD103 (corresponding to CD141 in humans)-positive dendritic cells (CD103 DC) play an important role in cancer cell phagocytosis and T cell anticancer immunity among dendritic cells (Broz et al., Cancer Cell, 26 (5): 638-652, 2014). Therefore, in order to analyze the effect of the ROCK inhibitor on CD103 DC, Y27632 was administered to B16F10-Ova-bearing cancer model mice according to the administration schedule described in the above Example 2-1, tumor tissues and tumor-draining lymph nodes were excised, and then flow cytometry analysis was performed using antibodies specifically binding to dendritic cell markers (CD11b, CD103 and CD8). It was confirmed that the ratio of CD103 DC was increased by Y27632 in both the tumor-draining lymph nodes (FIG. 15A) and the tumor tissues (FIG. 15B). On the other hand, in the case of CD11b-positive and CD8-positive dendritic cells, no change due to administration of Y27632 was observed.
The present inventors analyzed cross presentation activity which is one of functions of dendritic cells via flow cytometry analysis using an antibody capable of detecting a cancer antigen (H-2K^b-Ova) capable of activating T cells, through flow cytometry analysis using an antibody (H-2K^b monoclonal antibody, Invitrogen, USA). It was confirmed that the cross presentation of CD103 DC was increased by Y27632 in both tumor-draining lymph nodes (FIG. 15C) and tumor tissues (FIG. 15D).
Further, the present inventors analyzed CD40, which is one of the markers of dendritic cell function capable of activating T cells and a DC maturation marker of dendritic cells, by flow cytometry analysis using anti-CD40 antibodies. As shown in FIGS. 15E and 15F, it was confirmed that the maturation of CD103 DC was increased by Y27632 in the tumor-draining lymph nodes.
The present inventors analyzed a series of immunological induction processes occurring after the phagocytosis against cancer cells or cancer-specific antigens in order to analyze the mechanism of the combination therapy for the anti-cancer immune response. Specifically, in order to confirm the effect of the combination therapy on the dendritic cell maturation, Y27632 and doxorubicin were administered to B16F10-Ova-bearing cancer model mice as described above, and then tumor-draining lymph nodes were isolated and the expression of CD40 and CD86, which are dendritic cell maturation markers, was analyzed by flow cytometry analysis.
Further, in order to confirm the effect of the combined treatment on the cross presentation process to the dendritic cells, the present inventors administered Y27632 and doxorubicin to B16F10-Ova-bearing cancer model mice as described above, isolated the tumor-draining lymph nodes, and then cross presentation activity, which is one of functions of dendritic cells, was analyzed via flow cytometry analysis using an antibody capable of detect a cancer antigen (H-2K^b-Ova) capable of activating T cells, through flow cytometry analysis using an antibody (H-2K^b monoclonal antibody, Invitrogen, USA).
The present inventors then investigated the effect of the combination of the drugs on the maturation process of dendritic cells. Specifically, the tumor-draining lymph nodes were isolated after administration of Y27632 and/or cisplatin in the B16F10-Ova-bearing cancer model, and the expression level of CD40 and CD86, the dendritic cell maturation markers, was analyzed by flow cytometry. As shown in FIG. 19C and 19D, there was no influence on the maturation of dendritic cells when Y27632 alone, cisplatin alone, or the combination of the two were administered (FIGS. 19C and 19D). […]

B16F10-Ova = B16F10-Ova tumor model, Y27632 combined with a chemotherapeutic; format: in vivo, mice; settings: doxorubicin 5 mg/kg, Y27632 10 mg/kg
Method: Specifically, tumor suppression was examined by administering 5 mg/kg of doxorubicin and 10 mg/kg of Y27632 alone or in combination to B16F10-Ova-bearing tumor model mice prepared as in Example 2-1. Doxorubicin was administered three times at intervals of 3 days from the 8th day after the injection of cancer cells, and Y27632 was administered at a dose of 10 mg/kg continuously for two consecutive days via intravenous injection followed by a day of rest as a cycle, followed by 3 cycles of 3-day intervals (FIG. 18A). The mice were sacrificed on the 20th day after the injection of cancer cells, the tumor tissue was excised, and ex vivo images were taken and the tumor tissues were weighed. Before the sacrifice of the mice, the tumor volumes over time were calculated as described above using calipers at intervals of 3 days from the 8th day after the injection of the cancer cells.
In order to confirm whether CD8^+ T cells infiltrates into tumor tissues, tumor tissues excised from an experimental animal were sectioned and subjected to fluorescence immunohistochemistry using anti-CD8 antibodies.
First, to determine the cisplatin therapeutic concentration, a B16F10-Ova tumor model was constructed in a nude mouse lacking T cell immunity and then an experiment was conducted to confirm the concentration of cisplatin having an anticancer effect similar to that of doxorubicin at 5 mg/kg. […] Thus, in order to evaluate the therapeutic effect of cisplatin and the ROCK inhibitor Y27632 in the B16F10-Ova-bearing tumor model, 3 mg/kg of cisplatin was administered according to the administration schedule shown in FIG. 18A.

[1] = tumor-draining lymph nodes, cisplatin study
[2] = tumor-draining lymph nodes, doxorubicin 5 mg/kg, Y27632 10 mg/kg

C[C@@H](N)[C@H]1CC[C@H](C(=O)Nc2ccncc2)CC1 [Y27632]
ratio of CD8-positive dendritic cells (dendritic cells; mouse, in vivo): no change | ratio of CD11b-positive dendritic cells (dendritic cells; mouse, in vivo): no change | cross presentation (H-2Kb-Ova) of CD103 DC (dendritic cells; tumor tissues): increased | ratio of CD103 DC (dendritic cells; tumor tissues): increased | expression of CD40 and CD86 in dendritic cells (dendritic cells; tumor-draining lymph node, schedule of Example 2-1): did not affect | cross presentation (H-2Kb-Ova) of CD103 DC (dendritic cells; tumor-draining lymph nodes): increased | cross-presentation (H-2Kb-Ova) in CD8 DCs (dendritic cells; tumor-draining lymph nodes): increased | maturation of CD103 DC (CD40) (dendritic cells; tumor-draining lymph nodes): increased | ratio of CD103 DC (dendritic cells; tumor-draining lymph nodes): increased | cross-presentation function (H-2Kb-Ova) of dendritic cells (dendritic cells; [1]): increase | maturation of dendritic cells (CD40 and CD86) (dendritic cells; [1]): no influence | antigenic cross presentation (H-2Kb-Ova) in the dendritic cells (dendritic cells; [2]): did not significantly increase | dendritic cell maturation (expression of CD40 and CD86) (dendritic cells; [2]): no effect | complete regression of the tumor (B16F10-Ova): not observed | infiltration of CD8+ T cells into tumor tissues (B16F10-Ova): slight infiltration
